Measured values: patent publication US20260062422A1 (Halda Therapeutics OpCo, Inc., priority 2022, published 2026)

Biological target: T1, progesterone receptor ligand binding domain (LBD) (Homo sapiens, UniProt P06401)
T1 construct: GST-tagged PR LBD, Fluormone tracer, and compound were mixed; purchased Life Technologies A15905 or a15906
T1 sequence (P06401 679-913 limits assumed): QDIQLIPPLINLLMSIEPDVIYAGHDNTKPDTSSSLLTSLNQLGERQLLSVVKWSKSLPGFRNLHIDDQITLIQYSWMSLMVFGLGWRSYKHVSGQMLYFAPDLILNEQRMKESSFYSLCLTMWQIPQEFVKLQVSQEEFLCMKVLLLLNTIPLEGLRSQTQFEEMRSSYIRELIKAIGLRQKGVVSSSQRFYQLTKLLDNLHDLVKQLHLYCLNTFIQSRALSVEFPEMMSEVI
Assay: FP assay (PolarScreen Progesterone Receptor Competitor Assay) for binding to progesterone receptor LBD
Conditions: GST-tagged PR LBD, Fluormone tracer, fluorescence polarization, 2 hours; Table 17
Protocol: Compounds were tested using the PolarScreen™ Progesterone Receptor Competitor Assay Kit (Life Technologies Cat #A15905 or a15906), as per the manufacturer's instructions. Briefly, GST-tagged PR LBD, Fluormone tracer, and compound were mixed and incubated for 2 hours at room temperature in the dark. Following incubation, the plates were spun at 3000×g for 30 seconds, then sealed with an optical adhesive cover, and fluorescence polarization was measured using appropriate excitation and emission filters with an EnVision Plate Reader (Perkin Elmer). Compound concentration vs. mP value were plotted in Prism (GraphPad). A four-parameter non-linear regression curve fit was applied to dose-response data to determine the half-maximal inhibitory concentration (IC50) for each test compound.

Row | IC50 [µM] | SMILES
1 | < 0.05 | Cc1sc2c(c1C)C(c1ccc(OCCOC3CCN(c4ncc(C(=O)N[C@H]5C(C)(C)[C@H](Oc6ccc(C#N)c(Cl)c6)C5(C)C)cn4)CC3)cc1)=N[C@@H](CC(=O)OC(C)(C)C)c1nnc(C)n1-2 [Compound I-235, tert-butyl 2-((S)-4-(4-(2-((1-(5-(((1r,3r)-3-(3-chloro-4-cyanophenoxy)-2,2,4,4-tetramethylcyclobutyl)carbamoyl)pyrimidin-2-yl)piperidin-4-yl)oxy)ethoxy)phenyl)-2,3,9-trimethyl-6H-thieno[3,2-f][1,2,4]triazolo[4,3-a][1,4]diazepin-6-yl)acetate]
2 | 0.05 to 0.5 | CCNC(=O)C[C@@H]1N=C(c2ccc(CCCN(C)c3ncc(C(=O)N[C@H]4C(C)(C)[C@H](Oc5ccc(C#N)c(Cl)c5)C4(C)C)cn3)cc2)c2c(sc(C)c2C)-n2c(C)nnc21 [Compound I-104]
